According to PMC4057667, “Study on Biopharmaceutics Classification and Oral Bioavailability of a Novel Multikinase Inhibitor NCE for Cancer Therapy” (International Journal of Molecular Sciences, 2014):

Experiment: Equilibrium solubility in phosphate buffers
Format: physicochemical
Settings: aqueous buffer, thermodynamic from solid, n = 3, mean
Protocol: Different phosphate buffers with a pH range of 1.0–7.4 were prepared as follows. Momobasic potassium phosphate (KH2PO4, 0.2 M) was prepared by dissolving 27.22 g of KH2PO4 in water and diluting with water to 1000 mL. Sodium hydroxide (NaOH, 0.2 M) was prepared by dissolving […] of NaOH in water and diluting with water to 1000 mL. Then, we placed 50 mL of the momobasic potassium phosphate solution in a 200 mL volumetric flask, added the specified volume of the sodium hydroxide solution and added water to volume.
The equilibrium solubilities of NCE were determined in 0.1 mol/mL phosphate buffers with a pH range of 1.0–7.4. An excess amount of NCE was put into the buffer, placed in a 37 °C water bath and shaken for 3 days at a rate of 100 rpm. Samples were centrifuged at a rate of 1.3 × 10^4 rpm for 10 min and then measured by HPLC (Waters e2695 Separations Module, Milford, MA, USA). Each experiment was performed in triplicates.

For `CNC(=O)c1cc(Oc2ccc(NC(=O)c3cccc(C(F)(F)F)c3)cc2)ccn1.Cc1ccc(S(=O)(=O)O)cc1.O` [NCE, 2-methylcarbamoyl-4-{4-[3-(trifluoromethyl)benzamido]phenoxy} pyridinium 4-methylbenzenesulfonate monohydrate], the solubility at 3 days (phosphate buffer pH 1.0, 37 °C) was 81.7 µg/mL, the solubility at 3 days (phosphate buffer pH 5.0, 37 °C) was 8.5 µg/mL and the solubility at 3 days (phosphate buffer pH 6.8, 37 °C) was 9.3 µg/mL. For the same compound, the solubility at 3 days (phosphate buffer pH 7.4, 37 °C) was 10 µg/mL.
